Measured values: US8071556B2, “Peptide substance revealing a stress protective effect, pharmaceutical composition on its base, and the method of its application” (Obschestvo S Ogranichennoi Otvetstevennostyu “Sia Peptides”, priority 2006, dated 2011)
Positions of bridges follow the written chain, without caps; N, C: chain ends. Non-standard residues stand in square brackets, D forms with d. Residues, ends and D or L forms follow the SMILES beside them. *: point of attachment. Ileψ(thiazoline)Cys = CC[C@H](C)[C@H](N)C1=N[C@H](C(=O)*)CS1; dOrn = NCCC[C@@H](N)C(=O)O

Tests used:
[1] = system: enkephalinases in human blood serum; test: Activity of enkephalinases in human blood serum ([3H]Leu-enkephalin disintegration); format: biochemical; conditions: 0.15 μM [3H]Leu-enkephalin
Protocol: The ability of peptide H-Glu-Asp-Gly-OH to influence the activity of endogen opioid peptide degradation enzymes, i.e. […], was estimated in kinetic studies judging by disintegration of low concentrations (0.15 μM) of [^3H]Leu-enkephalin by human blood serum enzymes. Commonly used enkephalinase inhibitors N-carboxymethyl-Phe-Leu (N-CMPL) and bacitracin were used as comparison substances. Summary enkephalinase activity of the blood serum taken from 5 healthy donors, was estimated in vitro. Results were evaluated after 4 studies.

[2] = Sub-acute toxicity, 90 days intramuscular administration; format: in vivo, white mongrel male rats; conditions: rats; intramuscular daily for 90 days; doses exceeding the therapeutic one by 100-1000 times
Description: (§1) Common toxicity of peptide H-Glu-Asp-Gly-OH was studied according to the requirements stated in the “Manual for experimental (pre-clinical) study of new pharmacological substances” (2000): acute toxicity in case of single administration of the substance, as well as sub-acute and chronic toxicity in case of long-term administration of the peptide.
Sub-acute toxicity was studied on 64 white mongrel male rats with body weight of 180-220 g. Experimental animals daily, once a day, for 90 days received the substance intramuscularly in the doses of 1 μg/kg, 0.1 mg/kg, 1 mg/kg in 0.5 ml of sterile 0.9% NaCl solution. Control animals received sterile 0.9% NaCl solution in the same volume. Morphological composition and properties of the animals' peripheral blood was studied before the administration of the substance, as well as on the 30th, 60th and 90th day after the beginning of the administration of the substance. Biochemical and coagulologic indices of the blood were studied upon completion of the experiment.

[3] = system: c-Fos protein in rat pineal gland; test: c-Fos protein level and parenchyma status in rat pineal gland in osmotic stress; format: in vivo; conditions: rats, 48-hour osmotic stress
Protocol: Effect of intranasally administered H-Glu-Asp-Gly-OH peptide on c-Fos protein content in stress-affected rat pineal gland was studied. Immunohistochemical study of c-Fos protein content was performed in two groups of rats—intact and subjected to 48-hour osmotic stress. The latter were intranasally administered with peptide H-Glu-Asp-Gly-OH in the dose of 0.5 μg per animal in 0.1 ml of sterile physiological 0.9% NaCl solution (last infusion was performed 2 hours before taking the material). Pineal gland parenchyma in all groups of animals was studied using light optical appliances.

[4] = Human functional status under low oxygen partial pressure (pressure chamber rise to 5000 meters); format: in vivo; conditions: healthy men
Protocol: Effect of peptide H-Glu-Asp-Gly-OH on human functional status and working ability in extreme conditions under the effect of low oxygen partial pressure was studied by examining 80 healthy men aged 20-22 years. The participants of the study were subdivided into 3 groups: 20 men formed the control group, while main groups I and II consisted of 30 persons each. Background study, including the examination of respiratory, cardiovascular and central nervous systems was performed on the first day of the experiment.
After the completion of background study the members of main group I began receiving the pharmaceutical composition, containing peptide H-Glu-Asp-Gly-OH as its active base, by intranasal infusions, in the dose of 5.0 mg in 1 ml of physiological solution (subgroup I), in the dose of 100.0 μg (subgroup II) and in the dose of 1.0 μg in 1.0 ml of physiological solution (subgroup III) […], for 2 days. Thus, the members of main group I received the peptide H-Glu-Asp-Gly-OH intranasally in the dose of 10 mg (subgroup I), 200 μg (subgroup II) and 2 μg (subgroup III) per course.
Members of main group II began receiving the pharmaceutical composition, containing the peptide H-Glu-Asp-Gly-OH as its active base, after the completion of background study, intramuscularly, in the dose of 5.0 mg in 1 ml of physiological solution (subgroup I), in the dose of 100.0 μg (subgroup II) and in the dose of 1.0 μg in 1.0 ml of physiological solution (subgroup III) daily, once a day, for 2 days.
Members of the control group received placebo in the form water for injections.
On the 4th day of the experiment the members of all 3 groups were subjected to the effect of hypoxic hypoxia by “rising” them to the altitude of 5000 meters for 60 minutes of exposition without auxiliary oxygen supply, which was imitated using the pressure chamber SBK-80. Participants of the experiment were shortly examined before the beginning of the “rise”, during the experiment and after its completion. On the 5th day of the experiment all participants were subjected to a full scale final examination. During the study reactive anxiety in all participants was on the moderate level (31-45 points). […] After 2 days of administration of the pharmaceutical composition containing peptide H-Glu-Asp-Gly-OH in different doses as its active base reactive anxiety in participants of the experiment was reduced by 10-13% depending on the dosage and method of administration of the pharmaceutical composition as compared to the members of the control group.

[5] = system: biogen amines in rat blood serum; test: Level of biogen amines in rat blood serum after peptide administration; format: in vivo; conditions: 2.5 μg/kg intraperitoneal daily for 5 days, vs control (FIG. 2)
Protocol: (§2) The study was performed on 27 white mongrel rats of both sexes with body weight of 300-320 g.
(§3) The animals were subjected to intraperitoneal injection of peptide H-Glu-Asp-Gly-OH in the dose of 2.5 μg/kg in 0.5 ml of sterile 0.9% NaCl solution daily for 5 days.
(§4) Control rats received sterile 0.9% NaCl solution in the same volume and by the same schedule.
(§5) Upon completion of peptide administration the animals were decapitated, and the content of noradrenaline, dopamine, 5-oxyindolacetic acid, serotonin and histamine was evaluated in the brain cortex and blood serum.

[6] = system: biogen amines in rat brain cortex; test: Level of biogen amines in rat brain cortex after peptide administration; format: in vivo; conditions: 2.5 μg/kg intraperitoneal daily for 5 days, vs control (FIG. 1)
Protocol: as §2, §3, §4, §5

[7] = Acute toxicity, single intramuscular administration; format: in vivo, white mongrel male mice; conditions: mice, 1-5 mg/kg, dose exceeding the therapeutic one by more than 5000 times
Description: as §1
Acute toxicity was studied on 66 white mongrel male mice with body weight of 20-22 g. The animals were randomly subdivided into 6 equal groups. The substance was administered to the animals once, intramuscularly, in the doses of 1 mg/kg, 2 mg/kg, 3 mg/kg, 4 mg/kg, 5 mg/kg in 0.25 ml of sterile 0.9% NaCl solution. Control animals received 0.9% NaCl solution in the same volume.

[8] = system: c-fos gene expression in the neurons of rat hypothalamic paraventricular nucleus; test: c-fos gene expression in neurons of rat hypothalamic paraventricular nucleus under emotional stress; format: in vivo, Wistar rats
Protocol: The effect of peptide H-Glu-Asp-Gly-OH was studied in the paraventicular nucleus of hypothalamus (PVH) in stress-resistant and stress-prone animals, as well as in rats exposed to emotional stress.
The experiments were conducted on 28 Wistar rats.
Behavior of the animals was preliminarily (for the purpose of identifying the extent of their resistance to emotional stress) estimated in the “open field” test. The effectiveness of peptide H-Glu-Asp-Gly-OH was studied on stress-resistant and stress-prone rats. Peptide H-Glu-Asp-Gly-OH was administered intraperitoneally in the doses of 0.1 and 0.01 μg per rat 7-10 days after the first “open field” test. One hour after the injection the rats were exposed to the 60 minutes emotional stress, which was modulated by motional restriction.
To identify the cells, containing Fos protein, which is a product of the early c-fos gene expression, an immunohystochemical investigation of brain section with automated counting of Fos-positive cells was performed. The peculiarities of c-fos gene induction were studied in the PVH.

[9] = parameters: species or system male guinea pigs; conditions: guinea pig, in vivo
Protocol: as §1
The studies of chronic toxicity were conducted for 6 months, basing on the term of recommended clinical administration of the substance, on 92 male guinea pigs with body weight of 310-350 g. Experimental animals received the peptide daily, once a day, intramuscularly, for 6 months in the doses of 1 μg/kg, 0.1 mg/kg, 1 mg/kg in 0.5 ml of sterile 0.9% NaCl solution. Control animals received sterile 0.9% NaCl solution in the same volume and by the same schedule. Traditional methods were used for the evaluation of the following indices of the animals' peripheral blood: the quantity of erythrocytes, hemoglobin, reticulocytes, thrombocytes, leukocytes, leukocyte formula, erythrocyte sedimentation rate (ESR), erythrocyte resistance. Alongside with that, the content of total protein in the serum was identified using Lowry's method, as well as potassium and sodium content using the method of plasma spectrophotometry. After the completion of the experiment pathomorphologic studies of animal brain and spinal cord, spinal cord ganglia, thyroid gland, parathyroid glands, adrenal glands, testis, pituitary gland, heart, lungs, aorta, liver, kidneys, urinary bladder, pancreas, stomach, small intestine, large intestine, thymus, spleen, lymph nodes and bone marrow were performed.

[10] = end of the test, depending on the dosage and method of administration, placebo 10-11%
[11] = 10 μg/ml, human blood serum of 5 healthy donors (FIG. 5)

CC[C@H](C)[C@H](N)C1=N[C@H](C(=O)N[C@@H](CC(C)C)C(=O)N[C@H](CCC(=O)O)C(=O)N[C@H](C(=O)N[C@H]2CCCCNC(=O)[C@H](CC(N)=O)NC(=O)[C@@H](CC(=O)O)NC(=O)[C@H](Cc3cnc[nH]3)NC(=O)[C@@H](Cc3ccccc3)NC(=O)[C@H]([C@@H](C)CC)NC(=O)[C@@H](CCCN)NC2=O)[C@@H](C)CC)CS1 [bacitracin] ({Ileψ(thiazoline)Cys}-L[dE]IK[dOrn]I[dF]H[dD]N; lactam 4-C)
activity of blood serum enkephalinases ([1]; 50 μg/ml, human blood serum of 5 healthy donors): comparable

N[C@@H](CCC(=O)O)C(=O)N[C@@H](CC(=O)O)C(=O)NCC(=O)O [peptide H-Glu-Asp-Gly-OH, glutamyl-aspartyl-glycine] (H-Glu-Asp-Gly-OH)
sub-acute toxicity: side effects [2]: absence of side effects
content of c-Fos protein in pinealocytes ([3]; 0.5 μg per animal intranasal (FIG. 3)): Mild but reliable increase
osmotic stress induced dilation of capillaries and pericapillary space in pineal gland parenchyma ([3]; 0.5 μg per animal intranasal (FIG. 4)): partial reduction
study participants showing good tolerability to hypoxia ([4]; 5000 meters, 60 minutes, placebo 60%): 80-90%
reduction of reactive anxiety as compared to the control group ([4]; after 2 days of administration, different doses, intranasal or intramuscular): 10-13%
lung ventilation in case of dosed physical load ([4]; after hypoxia impact): reduced lung ventilation
increase in heart rate (HR) caused by hypoxia ([4]; depending on the dose and method of administration, placebo 30-40%): 10-20%
increase in maximum oxygen consumption [4, 10]: 15-20%
increase in physical working capacity index (PWC 170) [4, 10]: 15-20%
subjective status under hypoxic hypoxia versus initial level ([4]; intramuscular administration, different doses): equal to the initial level
decrease in the subjective status under hypoxic hypoxia ([4]; intranasal infusion): 4-5%
reactive anxiety level versus initial level ([4]; next day after the impact of hypoxia, independently of the method of administration): equal to the initial one
subjective status better than the initial level ([4]; next day after the impact of hypoxia, intramuscular administration): 15%
subjective status better than the initial level ([4]; next day after the impact of hypoxia, intranasal infusion): 10%
dopamine content in blood serum [5]: decrease
histamine content in blood serum [5]: decrease
serotonin content in blood serum [5]: decrease
dopamine content in brain cortex [6]: reliable increase
noradrenaline content in brain cortex [6]: reliable increase
serotonin content in brain cortex [6]: reliable increase
acute toxicity: toxic reactions [7]: does not cause toxic reactions
number of Fos-positive neural cells in PVH ([8]; 0.01 μg per rat intraperitoneal, stress-resistant rats, both not exposed and exposed to stress): increase
number of Fos-positive neurons in PVH ([8]; 0.1 μg per rat intraperitoneal, against the background of stress, stress-resistant animals): increased
number of Fos-positive neural cells in PVH ([8]; 0.1 μg per rat intraperitoneal, both stress-resistant and stress-prone rats): reduced
activity of blood serum enkephalinases [1, 11]: inhibited
chronic toxicity: side effects [9]: absence of side effects
effect on ESR, erythrocyte resistance and biochemical indices of the blood serum [9]: No reliable effect
pathologic changes (general status, blood indices, internal organs, cardiovascular and respiratory systems, liver and kidney functions) [9]: did not reveal any pathologic changes

CC(C)C[C@H](NC(=O)[C@H](Cc1ccccc1)NCC(=O)O)C(=O)O [N-CMPL, N-carboxymethyl-Phe-Leu]
activity of blood serum enkephalinases [1, 11]: comparable
